In ChEMBL document CHEMBL3611986, “Reversal of P-gp and BCRP-mediated MDR by tariquidar derivatives” (Eur J Med Chem, 2015):
pIC50: −log10 of the molar value.

Assays:
HCT-116 = assay: Cytotoxicity against human HCT116 cells assessed as cell viability after 48 hrs by MTT assay; format: cell-based; conditions: HCT-116, 48 h
SW-620 [1] = assay: Cytotoxicity against human SW620 cells assessed as cell viability after 48 hrs by MTT assay; format: cell-based; conditions: SW-620, 48 h
[2] = Cytotoxicity against human SW620/AD300 cells assessed as cell viability after 48 hrs by MTT assay; format: cell-based; conditions: SW-620, 48 h
[3] = Cytotoxicity against human CCD-18Co cells assessed as cell viability after 48 hrs by MTT assay; format: cell-based
[4] = Cytotoxicity against human HFE cells assessed as cell viability after 72 hrs by MTT assay; format: cell-based
Hepatocyte = assay: Cytotoxicity against rat hepatocytes assessed as cell viability after 72 hrs by MTT assay; format: cell-based; conditions: for pIC50: Rattus norvegicus, Hepatocyte
P-glycoprotein (ABCB1) = P-glycoprotein (ABCB1) (Homo sapiens, UniProt P08183); assay: (§1) Inhibition of p-glycoprotein-mediated rhodamine-123 efflux in human K562/p-gp cells at 0.5 uM after 1 hr by flow cytometry relative to tariquidar; format: cell-based; conditions: K562/p-gp cells, probe rhodamine-123
Chain of P-glycoprotein (ABCB1) (P08183 whole entry): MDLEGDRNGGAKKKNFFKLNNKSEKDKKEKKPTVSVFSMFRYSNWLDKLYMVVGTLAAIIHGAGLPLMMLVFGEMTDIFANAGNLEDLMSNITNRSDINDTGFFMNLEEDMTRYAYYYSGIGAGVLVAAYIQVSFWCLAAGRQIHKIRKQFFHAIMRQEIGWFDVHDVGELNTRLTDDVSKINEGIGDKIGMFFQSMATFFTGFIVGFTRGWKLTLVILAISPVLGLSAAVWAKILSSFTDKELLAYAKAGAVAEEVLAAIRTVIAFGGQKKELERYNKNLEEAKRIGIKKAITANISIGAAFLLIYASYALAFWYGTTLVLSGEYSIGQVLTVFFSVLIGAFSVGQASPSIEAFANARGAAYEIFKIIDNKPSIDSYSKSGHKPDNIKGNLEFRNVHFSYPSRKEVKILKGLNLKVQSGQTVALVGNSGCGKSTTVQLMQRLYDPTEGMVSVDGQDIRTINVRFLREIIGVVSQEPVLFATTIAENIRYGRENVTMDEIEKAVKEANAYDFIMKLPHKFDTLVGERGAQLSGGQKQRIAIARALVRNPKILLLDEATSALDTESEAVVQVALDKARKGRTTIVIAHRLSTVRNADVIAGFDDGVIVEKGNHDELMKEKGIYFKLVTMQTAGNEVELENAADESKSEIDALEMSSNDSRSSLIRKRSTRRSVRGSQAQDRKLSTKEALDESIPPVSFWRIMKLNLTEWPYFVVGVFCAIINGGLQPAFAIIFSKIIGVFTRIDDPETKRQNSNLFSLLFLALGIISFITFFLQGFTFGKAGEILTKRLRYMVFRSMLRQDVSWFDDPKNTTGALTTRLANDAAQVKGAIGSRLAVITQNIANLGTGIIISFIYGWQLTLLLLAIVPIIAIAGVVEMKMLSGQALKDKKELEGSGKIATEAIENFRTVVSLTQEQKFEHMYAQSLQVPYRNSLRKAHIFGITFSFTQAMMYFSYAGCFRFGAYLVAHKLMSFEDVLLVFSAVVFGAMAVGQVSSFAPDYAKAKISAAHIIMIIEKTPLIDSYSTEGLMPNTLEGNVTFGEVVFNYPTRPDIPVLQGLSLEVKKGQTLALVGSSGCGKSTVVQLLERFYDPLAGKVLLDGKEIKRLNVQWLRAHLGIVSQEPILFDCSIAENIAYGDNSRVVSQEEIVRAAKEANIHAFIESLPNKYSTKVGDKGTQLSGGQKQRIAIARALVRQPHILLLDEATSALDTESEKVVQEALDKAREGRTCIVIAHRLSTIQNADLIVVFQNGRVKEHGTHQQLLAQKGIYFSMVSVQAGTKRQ

[5] = target: T1, ATP-dependent translocase ABCB1 (Homo sapiens, UniProt P08183); assay: Inhibition of p-glycoprotein-mediated rhodamine-123 efflux in human K562/p-gp cells after 1 hr by flow cytometry; format: cell-based
T1 sequence (P08183 whole entry): as above

K562 [6] = assay: Effect on rhodamine-123 efflux in wild type human K562 cells at 0.5 uM after 1 hr by flow cytometry; format: ADME, cell-based; conditions: k562, 1 h
[7] = target: T1, ATP-dependent translocase ABCB1; assay: Inhibition of p-glycoprotein-mediated doxorubicin efflux in human K562/p-gp cells at 1 uM after 1 hr by flow cytometry; format: cell-based
[8] = target: T2, Broad substrate specificity ATP-binding cassette transporter ABCG2 (Homo sapiens, UniProt Q9UNQ0); assay: (§2) Inhibition of BCRP-mediated pheophorbide-A efflux in human K562/BCRP cells at 0.5 uM after 1 hr by flow cytometry; format: cell-based; conditions: k562/bcrp, 1 h, 0.5 µM
T2 sequence (Q9UNQ0 whole entry): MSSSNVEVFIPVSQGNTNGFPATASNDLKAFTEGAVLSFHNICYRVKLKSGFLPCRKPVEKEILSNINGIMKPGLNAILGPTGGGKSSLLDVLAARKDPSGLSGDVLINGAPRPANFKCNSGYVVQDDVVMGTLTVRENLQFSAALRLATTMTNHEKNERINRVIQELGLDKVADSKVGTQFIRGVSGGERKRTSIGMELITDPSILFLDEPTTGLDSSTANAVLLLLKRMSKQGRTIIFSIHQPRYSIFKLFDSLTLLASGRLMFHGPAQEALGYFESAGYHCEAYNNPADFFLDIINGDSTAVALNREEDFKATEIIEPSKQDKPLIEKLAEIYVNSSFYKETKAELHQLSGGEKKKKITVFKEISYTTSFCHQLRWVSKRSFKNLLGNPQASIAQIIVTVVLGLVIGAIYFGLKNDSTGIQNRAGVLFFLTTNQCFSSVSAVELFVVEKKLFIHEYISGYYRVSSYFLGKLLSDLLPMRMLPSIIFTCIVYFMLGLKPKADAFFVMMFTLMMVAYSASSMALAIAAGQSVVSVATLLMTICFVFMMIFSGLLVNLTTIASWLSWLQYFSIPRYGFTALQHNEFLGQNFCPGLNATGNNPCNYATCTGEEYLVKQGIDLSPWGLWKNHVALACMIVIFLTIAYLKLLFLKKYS

[9] = target: Multidrug resistance-associated protein 1 (Homo sapiens, UniProt P33527); assay: Inhibition of MRP1 (unknown origin)-mediated calcein-AM efflux expressed in HEK293/MRP1 cells at 0.5 uM after 1 hr by flow cytometry; format: cell-based; conditions: hek293/mrp1, 1 h
Chain of Multidrug resistance-associated protein 1 (P33527 whole entry): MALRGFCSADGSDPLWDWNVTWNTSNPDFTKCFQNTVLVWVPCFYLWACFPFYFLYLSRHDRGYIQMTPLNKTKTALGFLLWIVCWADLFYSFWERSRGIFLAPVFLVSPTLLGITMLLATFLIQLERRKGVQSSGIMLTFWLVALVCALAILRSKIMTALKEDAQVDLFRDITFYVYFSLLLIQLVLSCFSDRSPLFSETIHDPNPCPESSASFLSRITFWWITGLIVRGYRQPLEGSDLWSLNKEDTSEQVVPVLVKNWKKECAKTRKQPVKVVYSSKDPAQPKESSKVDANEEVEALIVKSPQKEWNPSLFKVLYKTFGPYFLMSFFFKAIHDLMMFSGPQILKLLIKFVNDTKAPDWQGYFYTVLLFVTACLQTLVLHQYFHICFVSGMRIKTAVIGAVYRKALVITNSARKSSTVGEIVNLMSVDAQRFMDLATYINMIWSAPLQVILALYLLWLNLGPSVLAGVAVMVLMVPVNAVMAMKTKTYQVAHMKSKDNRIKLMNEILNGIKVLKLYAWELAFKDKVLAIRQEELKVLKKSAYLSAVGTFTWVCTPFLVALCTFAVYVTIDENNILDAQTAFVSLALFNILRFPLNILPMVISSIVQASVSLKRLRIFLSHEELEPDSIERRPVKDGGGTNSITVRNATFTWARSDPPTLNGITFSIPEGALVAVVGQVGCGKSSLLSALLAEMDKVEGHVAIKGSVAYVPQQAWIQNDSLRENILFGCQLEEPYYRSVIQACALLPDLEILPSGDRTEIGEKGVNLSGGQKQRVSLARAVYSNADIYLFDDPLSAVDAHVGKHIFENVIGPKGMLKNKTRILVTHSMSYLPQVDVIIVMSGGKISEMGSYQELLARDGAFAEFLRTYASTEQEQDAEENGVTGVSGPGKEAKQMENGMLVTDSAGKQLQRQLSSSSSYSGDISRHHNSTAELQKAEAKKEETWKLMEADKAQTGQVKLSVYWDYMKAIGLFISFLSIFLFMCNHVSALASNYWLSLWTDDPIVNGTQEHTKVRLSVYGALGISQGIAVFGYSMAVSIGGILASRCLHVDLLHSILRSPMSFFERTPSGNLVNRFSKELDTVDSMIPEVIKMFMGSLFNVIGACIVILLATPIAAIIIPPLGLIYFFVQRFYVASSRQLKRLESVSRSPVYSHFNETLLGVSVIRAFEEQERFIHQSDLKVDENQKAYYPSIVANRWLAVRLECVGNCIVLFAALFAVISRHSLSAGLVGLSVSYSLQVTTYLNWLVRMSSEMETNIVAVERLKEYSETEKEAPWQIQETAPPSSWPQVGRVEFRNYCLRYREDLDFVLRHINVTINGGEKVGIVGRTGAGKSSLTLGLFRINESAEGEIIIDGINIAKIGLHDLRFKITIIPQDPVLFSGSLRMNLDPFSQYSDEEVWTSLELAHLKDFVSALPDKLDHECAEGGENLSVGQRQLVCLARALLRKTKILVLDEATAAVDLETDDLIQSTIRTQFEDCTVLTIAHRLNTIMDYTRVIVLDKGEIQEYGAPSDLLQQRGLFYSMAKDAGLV

[10] = Potentiation of paclitaxel-induced cytotoxicity against human LCC6 cells at 200 nM after 72 hrs by SRB assay relative to control; format: functional
[11] = target: T1, ATP-dependent translocase ABCB1; assay: Inhibition of p-glycoprotein in human LCC6/MDR cells assessed as increase of paclitaxel-induced cytotoxicity at 200 nM after 72 hrs by SRB assay relative to control; format: cell-based; conditions: 0.2 µM
MCF7 [12] = assay: Potentiation of mitoxantrone-induced cytotoxicity against human MCF7 cells at 200 nM after 72 hrs by SRB assay relative to control; format: functional
[13] = target: T2, Broad substrate specificity ATP-binding cassette transporter ABCG2; assay: Inhibition of BCRP in human MCF-7 FLV1000 cells assessed as increase of mitoxantrone-induced cytotoxicity at 200 nM after 72 hrs by SRB assay relative to control; format: cell-based; conditions: 0.2 µM
HepG2 [14] = assay: Potentiation of doxorubicin-induced cytotoxicity against human HepG2 cells at 200 nM after 72 hrs by SRB assay relative to control; format: functional
[15] = target: T1, ATP-dependent translocase ABCB1; assay: Inhibition of p-glycoprotein in human HepG2 cells assessed as increase of doxorubicin-induced cytotoxicity at 200 nM after 72 hrs by SRB assay relative to control; format: cell-based; conditions: hepg2, 72 h, 0.2 µM
SW-620 [16] = assay: Potentiation of doxorubicin-induced cytotoxicity against human SW620 cells at 200 nM after 72 hrs by SRB assay relative to control; format: functional
[17] = target: T1, ATP-dependent translocase ABCB1; assay: Inhibition of p-glycoprotein in human SW620/AD300 cells assessed as increase of doxorubicin-induced cytotoxicity at 200 nM after 72 hrs by SRB assay relative to control; format: cell-based; conditions: sw-620, 72 h, 0.2 µM
SW-620 [18] = assay: Cytotoxicity against human SW620 cells at 200 nM after 72 hrs by SRB assay; format: cell-based; conditions: sw-620, 72 h, 0.2 µM
[19] = Cytotoxicity against human SW620/AD300 cells expressing p-glycoprotein at 200 nM after 72 hrs by SRB assay; format: cell-based; conditions: sw-620, 72 h, 0.2 µM
HepG2 [20] = assay: Cytotoxicity against human HepG2 cells at 200 nM after 72 hrs by SRB assay; format: cell-based; conditions: hepg2, 72 h, 0.2 µM
HepG2 [21] = assay: Cytotoxicity against human HepG2 cells expressing p-glycoprotein at 200 nM after 72 hrs by SRB assay; format: cell-based; conditions: hepg2, 72 h, 0.2 µM
MCF7 [22] = assay: Cytotoxicity against human MCF7 cells at 200 nM after 72 hrs by SRB assay; format: cell-based; conditions: mcf7, 72 h, 0.2 µM
[23] = Cytotoxicity against human MCF-7 FLV1000 cells expressing BCRP at 200 nM after 72 hrs by SRB assay; format: ADME, cell-based; conditions: mcf-7 flv1000, 72 h, 0.2 µM
[24] = Cytotoxicity against human LCC6 cells at 200 nM after 72 hrs by SRB assay; format: cell-based; conditions: lcc6, 72 h, 0.2 µM
[25] = Cytotoxicity against human LCC6 cells expressing p-glycoprotein at 200 nM after 72 hrs by SRB assay; format: cell-based; conditions: lcc6, 72 h, 0.2 µM
K562 [26] = assay: Induction of UIC2 antibody binding to p-glycoprotein in human K562 cells at 0.5 uM preincubated for 10 mins followed by antibody addition measured after 45 mins by flow cytometry relative to tariquidar; format: cell-based
[27] = target: T2, Broad substrate specificity ATP-binding cassette transporter ABCG2; assay: Induction of 5D3 antibody binding to BCRP in human K562 cells at 0.5 uM preincubated for 10 mins followed by antibody addition measured after 45 mins by flow cytometry relative to tariquidar; format: cell-based; conditions: k562, 0.75 h
Homo sapiens = species on record: Homo sapiens; assay: Inhibition of p-glycoprotein (unknown origin) expressed in High five insect cell membranes assessed as ATP hydrolysis after 20 mins by colorimetric ATPase assay
[28] = target: T2, Broad substrate specificity ATP-binding cassette transporter ABCG2; assay: Induction of BCRP (unknown origin) expressed in High five insect cell membranes assessed as ATP hydrolysis after 10 mins by colorimetric ATPase assay
[29] = target: T1, ATP-dependent translocase ABCB1; assay: as §1; format: cell-based; conditions: 1 h, 0.5 µM
BCRP (ABCG2) = target: T3, BCRP (ABCG2) (Homo sapiens, UniProt Q9UNQ0); assay: as §2; format: cell-based; conditions: K562/BCRP cells, probe pheophorbide-A
T3 sequence (Q9UNQ0 whole entry): T2 sequence (Q9UNQ0 whole entry)

SMILES	pIC50 (HCT-116)	pIC50 (SW-620 [1])	pIC50 [2]	pIC50 [3]	pIC50 [4]	inhibition (INH) [5]	Activity (K562 [6])	inhibition (INH) [9]	fold change (FC) [10]	fold change (FC) [11]	fold change (FC) (MCF7 [12])	fold change (FC) [13]	fold change (FC) (HepG2 [14])	fold change (FC) [15]	fold change (FC) (SW-620 [16])	fold change (FC) [17]	Activity (SW-620 [18])	Activity [19]	Activity (HepG2 [20])	Activity (HepG2 [21])	also measured
COc1cc2c(cc1OC)CN(CCc1ccc(NC(=O)c3ccccc3NC(=O)c3cnc4ccccc4c3)cc1)CC2	< 4.00	< 4.00	< 4.00	< 4.00	< 5.30	Dose-dependent effect	Non-toxic	Not Active	0.9	2.8	1.3	2.9	0.29	0.38	0.36	6.23	Non-toxic	Non-toxic	Non-toxic	Non-toxic	pIC50 (Hepatocyte): 4.30; inhibition at 1 h, 0.5 µM (P-glycoprotein (ABCB1)): 90.5%; inhibition (INH) [7]: Active; inhibition (INH) [8]: Active; Activity (MCF7 [22]): Non-toxic; Activity [23]: Non-toxic; Activity [24]: Non-toxic; Activity [25]: Non-toxic; Activity (K562 [26]): 93.2%; Activity [27]: 90.7%; inhibition (Homo sapiens): Dose-dependent effect; Activity [28]: Active
COc1cc2c(cc1OC)CN(CCc1ccc(NC(=O)c3ccccc3NC(=O)c3ccco3)cc1)CC2	< 4.00	< 4.00	< 4.00	< 4.00	< 4.00	Dose-dependent effect	Non-toxic	Not Active	1.3	46	1.4	2.1	1.09	3	2.1	2.63	Non-toxic	Non-toxic	Non-toxic	Non-toxic	Activity (Hepatocyte; rat, hepatocytes): Non-toxic; inhibition (INH) [29]: Active; inhibition (INH) [8]: Active; Activity (MCF7 [22]): Non-toxic; Activity [23]: Non-toxic; Activity [24]: Non-toxic; Activity [25]: Non-toxic; Activity (K562 [26]): 35.5%; Activity [27]: 149.4%; inhibition (Homo sapiens): Dose-dependent effect; Activity [28]: Active
COc1cc2c(cc1OC)CN(CCc1ccc(NC(=O)c3ccccc3NC(=O)c3ccc(F)cc3[N+](=O)[O-])cc1)CC2	< 4.00	< 4.00	< 4.00	< 4.00	< 5.00	Dose-dependent effect	Non-toxic	Not Active	1.1	35	1.7	46	0.76	0.36	1.6	3.62	Non-toxic	Non-toxic	Non-toxic	Non-toxic	pIC50 (Hepatocyte): 4.00; inhibition (INH) [29]: Active; inhibition at 1 h, 0.5 µM (BCRP (ABCG2)): 60%; Activity (MCF7 [22]): Non-toxic; Activity [23]: Non-toxic; Activity [24]: Non-toxic; Activity [25]: Non-toxic; Activity (K562 [26]): 57.3%; Activity [27]: 119.1%; inhibition (Homo sapiens): Dose-dependent effect; Activity [28]: Active
